According to patent US9226505B2, “4-substituted 1-phenylpyrazole-3-carboxylic acid derivatives as agents against abiotic plant stress” (BAYER INTELLECTUAL PROPERTY GMBH, priority 2011, dated 2016):

Tested on: BRSNS
Test: Drought stress test on crop plants, spray application, visual damage rating (BRSNS)
Format: in vivo, Brassica napus
Settings: dosage 250 g/ha, mean of three results
Experimental: Seeds of monocotyledonous and dicotyledonous crop plants were laid out in sandy loam in wood-fiber pots, covered with soil and cultivated in a greenhouse under good growth conditions. The test plants were treated at the early leaf stage (BBCH10-BBCH13). To ensure uniform water supply before commencement of stress, the potted plants were supplied with the maximum amount of water immediately beforehand by dam irrigation and, after application, transferred into plastic inserts in order to prevent subsequent, excessively rapid drying. The compounds according to the invention, formulated in the form of wettable powders (WP), wettable granules (WG), suspension concentrates (SC) or emulsion concentrates (EC), were sprayed onto the green parts of the plants as an aqueous suspension at an equivalent water application rate of 600 I/ha with addition of 0.2% wetting agent (agrotin). Substance application is followed immediately by stress treatment of the plants (cold or drought stress). […]
After the recovery phase had ended, the intensities of damage were rated visually in comparison to untreated, unstressed controls of the same age (in the case of drought stress) or the same growth stage (in the case of cold stress). The intensity of damage was first recorded as a percentage (100%=plants have died, 0%=like control plants). […]

Structure (SMILES): CCCn1cc(-c2cn(-c3ccc(F)cc3)nc2C(=O)OCC)cn1 [1-878, Ethyl 1-(4-fluorophenyl)-1-propyl-1H, 1′H-4,4′-bipyrazole-3-carboxylate]
- EF (BRSNS), efficacy = percentage reduction in the intensity of damage: >5%
